Counter-ions that a name gives are not always drawn.
How the values were obtained:
[1] = stability constant; cited from earlier work
[2] = system: TZM-bl cells; assay: MTT cytotoxicity assay on uninfected cells; assay type: cell-based; conditions: for CC50: uninfected TZM-bl
Procedure: (§1) We used TZM-bl cells that are HeLa cells stably expressing large amounts of CD4, CXCR4, and CCR5, thus being highly susceptible to HIV-infection, with integrated luciferase and beta-galactosidase genes under the control of the HIV-1 promoter. We first tested NDI–tetraazacycloalkane conjugates’ cytotoxicity on TZM-bl cells by treating them with increasing amounts of compounds (0.097–25 μM) for 24 and 48 h.
(§2) Cytotoxicity of tested compounds was performed in parallel to antiviral and reporter assays by MTT. […] The selectivity index (SI) is the relative effectiveness of the tested compound in inhibiting viral replication compared to inducing cell death (CC50 value/IC50 value). […]. IC50 and CC50 values were calculated by using a nonlinear regression model.

[3] = system: HIV-1 X4 strain (NL4–3); assay: Time of addition (TOA) assay, X4 strain; assay type: cell-based
Procedure: This assay indicates how long the addition of a compound can be postponed before it loses its antiviral activity: comparing the test compounds with reference drugs, whose mechanism is well characterized in the time frame of virus replication, it is possible to determine which viral steps are affected by the test compounds.[56]
Virus production was monitored at 25 h post infection, i.e., at the end of a single round of HIV-1 replication, by exploiting the LTR-driven luciferase reporter system.
25 h post infection HIV-1 production was assessed following the LTR-luciferase signal using the britelite plus Reporter Gene Assay System. The activity of the test compounds was compared with that of untreated infected cells and reference drugs (DS stands for dextran sulfate and NEV stands for nevirapine).
TZM-bl cells (1 × 10^4 cells/well) were seeded in 96-well plates and grown overnight to permit adherence prior to treatment and viral infection. Cells were next infected with HIV-1 NL4–3 or BaL strains (MOI 0.5 and 0.3, respectively) and incubated at 37 °C. […] Following these criteria, we used the highest possible concentrations with the lowest cytotoxicity. After 25 h, cells were washed with PBS 1× and HIV-1 production was assessed following the LTR-luciferase signal using the britelite plus Reporter Gene Assay System (PerkinElmer, Waltman, MA, USA) according to the manufacturer’s protocol.

[4] = system: T-tropic HIV; conditions: cited from earlier work
[5] = system: HIV-1 R5 strain (BaL); assay: microbe, parasite or virus in culture; assay type: cell-based; conditions: TZM-bl; for IC50: Human immunodeficiency virus 1, BAL, R5 strain, MOI 0.3
Procedure: (§3) We next tested the antiviral activity of the NDI–tetraazacycloalkane conjugates in TZM-bl cells. Cells were infected with HIV-1 NL4–3 or BaL, two strains with different cell tropism due to the different coreceptors that are bound by the virus to get access into the cell: HIV-1 NL4–3 exploits the CXCR4 coreceptor (X4 strain), while HIV-1 BaL exploits the CCR5 coreceptor (R5 strain). Compounds were administered at the time of infection or 2 h post infection, and the antiviral activity was evaluated 24 and 48 h post infection. Cytotoxicity was tested in parallel on uninfected cells to assess compound cytotoxicity.
(§4) Cytotoxicity of tested compounds was performed in parallel to antiviral and reporter assays by MTT. […] The selectivity index (SI) is the relative effectiveness of the tested compound in inhibiting viral replication compared to inducing cell death (CC50 value/IC50 value). […] IC50 and CC50 values were calculated by using a nonlinear regression model.
(§5) HIV-1 infectivity was measured using the TZM-bl reporter cell line (obtained through the NIH AIDS Reagent Program, Division of AIDS, NIAID, NIH: TZM-bl cells (catalog no. 8129) from Dr. John C. Kappes, and Dr. Xiaoyun Wu). TZM-bl is a HeLa cell line stably expressing large amounts of CD4 and CCR5, constitutively expressing CXCR4 and containing integrated copies of the luciferase and β-galactosidase genes under the control of the HIV-1 promoter. TZM-bl were grown in DMEM supplemented with 10% FBS. Cells (1 × 10^4 cells/well) were seeded in 96-well plates and grown overnight to permit adherence prior to treatment and viral infection. Cells were next infected with HIV-1 NL4–3 strain or BaL strain at a MOI of respectively 0.5 and 0.3 for 1 h at 37 °C, treated with serial dilutions of tested compounds, and incubated at 37 °C. MOI values had been optimized in previous in-house experiments in order to obtain a well detectable virus release but avoid a virus-induced cytopathic effect. Compounds were reconstituted in DMSO, and dilutions were made in cell medium to maintain the same percentage of DMSO in all dilutions. Untreated cells were treated with the same solvent. After 24 or 48 h, cells were washed with PBS 1× and HIV-1 production was assessed following the LTR-luciferase signal using the britelite plus Reporter Gene Assay System (PerkinElmer, Waltman, MA, USA) according to the manufacturer’s protocol.

[6] = system: HIV-1 X4 strain (NL4-3); assay: microbe, parasite or virus in culture; assay type: cell-based; conditions: for IC50: Human immunodeficiency virus 1, NL43, TZM-bl, X4 strain, MOI 0.5
Procedure: as §3, §4, §5

[7] = system: LTR-III; assay: FRET melting assay, LTR-III G4; assay type: binding, HIV-1; conditions: LTR-III 0.25 μM, compound 0.5 μM, 100 mM KCl
Procedure: (§6) FRET assay was performed with FAM (6-carboxyfluorescein) 5′-end- and Tamra (6-carboxytetramethylrhodamine) 3′-end-labeled oligonucleotides (Table S1). Fluorescence melting curves were determined with a LightCycler II (Roche) real-time PCR machine, using a total reaction volume of 20 μL, with 0.25 μM tagged oligonucleotide in a buffer containing 10 mM lithium cacodylate pH 7.4 with 100 mM KCl, in the presence or absence of 0.5 μM NDI–tetraazacycloalkane conjugate. After a first equilibration step at 30 °C during 2 min, a stepwise increase of 1 °C every minute for 65 cycles to reach 95 °C was performed and measurements were made after each cycle with excitation at 470 nm and detection at 530 nm. Final analysis of the data was carried out using Excel and Sigma Plot software. Oligonucleotides melting was monitored by observing emission of FAM, which was normalized between 0 and 1: Tm was defined as the temperature at which the normalized emission is 0.5. Tm values were mean of 2–3 experiments and ΔTm was calculated as the difference Tm in the presence and absence of the compound.

[8] = system: LTR-IV; assay: CD melting, LTR-IV G4; assay type: binding, HIV-1; conditions: LTR-IV 4 μM, compound 8 μM, 100 mM KCl
Procedure: (§7) All oligonucleotides used in this study were from Sigma-Aldrich (Milan, Italy) (Table S2). For CD analysis, oligonucleotides were diluted to a final concentration of 4 μM in lithium cacodylate buffer (10 mM, pH 7.4) and KCl 100 mM. After the annealing step (95 °C for 5 min), DNA samples were gradually cooled to room temperature and compounds added from stock at final concentration of 8 μM. […] The reported spectrum of each sample represents the average of 2 scans and is baseline-corrected for signal contributions due to the buffer. Observed ellipticities were converted to mean residue ellipticity (θ) = deg × cm^2 × dmol^–1 (mol ellip). For the determination of Tm, spectra were recorded over a temperature range of 20–90 °C, with a temperature increase of 5 °C/min. Tm values were calculated according to the van’t Hoff equation, applied for a two-state transition from a folded to unfolded state, assuming that the heat capacity of the folded and unfolded states are equal.

[9] = system: LTR-IV; assay: FRET melting assay, LTR-IV G4; assay type: binding, HIV-1; conditions: LTR-IV 0.25 μM, compound 0.5 μM, 100 mM KCl
Procedure: as §6

[10] = system: LTR-III; assay: CD melting, LTR-III G4; assay type: binding, HIV-1; conditions: LTR-III 4 μM, compound 8 μM, 100 mM KCl
Procedure: as §7

[11] = system: Tel22; assay: CD melting, telomeric G4 control; assay type: binding; conditions: Tel22 4 μM, compound 8 μM, 100 mM KCl
Procedure: as §7

[12] = system: dsDNA; assay: FRET melting assay, dsDNA control; assay type: binding; conditions: dsDNA 0.25 μM, compound 0.5 μM, 100 mM KCl
Procedure: as §6

[13] = system: F21T; assay type: binding; conditions: F21T 0.25 μM, compound 0.5 μM, 100 mM KCl
Procedure: as §6

[14] = MTT cytotoxicity assay on uninfected cells; assay type: cell-based; conditions: human, uninfected TZM-bl
Procedure: as §1, §2

[15] = administration 0 hpi, evaluation 24 hpi
[16] = administration 2 hpi, evaluation 24 hpi
[17] = administration 2 hpi, evaluation 48 hpi

## C1CNCCNCCNCCNC1 [[13]aneN4]
[1]
  log Ka for Cu^2+: 24.41

## CN(C)CCCNc1cc2c3c(c(NCCCCCC(=O)O)cc4c3c1C(=O)N(CCCN(C)C)C4=O)C(=O)N(CCCN(C)C)C2=O [parental NDI]
[2]; TZM-bl, 24 h, Figure S11
  cytotoxicity (in words): highly cytotoxic

## dextran sulfate
[3]
  time post infection up to which the control drug is active: active at the time of infection only

## c1cc(CN2CCCNCCNCCCNCC2)ccc1CN1CCCNCCNCCCNCC1 [AMD3100, 1,1′-[1,4-phenylenebis(methylene)]-bis-1,4,8,11-tetraazacyclotetradecane octahydrochloride dehydrate, reference compound]
[4]
  concentration preventing replication of T-tropic HIV (in words): low nanomolar concentrations
[5]; BaL strain, Figure S10
  antiviral activity (in words): inactive
[6]; pNL4.3 strain, TZM-bl, Figure S10
  antiviral activity (in words): excellent activity

## Cc1ccnc2c1NC(=O)c1cccnc1N2C1CC1 [nevirapine]
[3]
  time post infection up to which the control drug is active: 3 to 4 h

## C1CNCCNCCNCCN1 [Cyclen]
[1]
  log Ka toward Cu^2+: 23.29

## CN(C)CCCNc1cc2c3c(c(NCCCCCC(=O)OCC4CNCCCNCCNCCN4)cc4c3c1C(=O)N(CCCN(C)C)C4=O)C(=O)N(CCCN(C)C)C2=O (stereo not shown) [compound 5]
[7]
  Tm K^+ 100 mM + compound (FRET): 77.7 ± 0.1 °C
  ΔTm (FRET): 12.5 °C
[8]
  Tm K^+ 100 mM + compound (CD): 71.6 ± 0.4 °C
  ΔTm (CD): 21.2 °C
[9]
  Tm K^+ 100 mM + compound (FRET): 73.9 ± 0.6 °C
  ΔTm (FRET): 15.2 °C
[5]; [15]
  IC50: > 25 µM
[5]; [16]
  IC50: > 25 µM
[5]; [17]
  IC50: 16.6 ± 1.33 µM
[6]; [15]
  IC50: 17.8 ± 0.94 µM
[6]; administration 0 hpi, evaluation 48 hpi
  IC50: 1.86 ± 0.49 µM
[6]; [16]
  IC50: 12.1 ± 1.02 µM
[6]; [17]
  IC50: 1.82 ± 0.65 µM
[10]
  Tm K^+ 100 mM + compound (CD): 78.6 ± 0.5 °C
  ΔTm (CD): 10.4 °C
[11]
  Tm K^+ 100 mM + compound (CD): 60.9 ± 0.3 °C
  ΔTm (CD): –5.9 °C
[12]
  Tm K^+ 100 mM + compound (FRET): 65.0 ± 0.2 °C
  ΔTm (FRET): 0.8 °C
[13]
  Tm K^+ 100 mM + compound (FRET): 66.6 ± 0.1 °C
  ΔTm (FRET): 2.2 °C
[2]; parallel to R5, administration 0 hpi, evaluation 24 hpi
  CC50: > 25 µM
[2]; parallel to R5, administration 0 hpi, evaluation 48 hpi
  CC50: > 25 µM
[2]; parallel to R5, administration 2 hpi, evaluation 48 hpi
  CC50: > 25 µM
[2]; parallel to X4, administration 0 hpi, evaluation 24 hpi
  CC50: > 25 µM
[2]; parallel to X4, administration 2 hpi, evaluation 24 hpi
  CC50: > 25 µM
[2]; parallel to X4, administration 2 hpi, evaluation 48 hpi
  CC50: > 25 µM
[14]; parallel to R5, administration 2 hpi, evaluation 24 hpi
  CC50 at 24 h: > 25 µM
[14]; parallel to X4, administration 0 hpi, evaluation 48 hpi
  CC50 at 48 h: > 25 µM
